Measured values reported in patent US20230390384A1 (priority 2020, published 2023).
Entries after “also recorded” stand apart in the source; their conditions may differ.

Tested on: RBD, a South African mutant antigen of COVID-19
Parameters: species or system SARS-CoV-2
Conditions: in vivo

Substance	antigen-specific antibody titer (RBD South African mutant)
N-palmitoyl-S-[2,3-bis(palmitoyloxy)-(2RS)-propyl]-[R]-cystein-SKKKK [Pam3CSK4]	higher antibody titer; also recorded: highest antibody titer
FSL-1	higher antibody titer; also recorded: highest antibody titer
